Test results published in US8791145B2, “Agricultural formulations with acyl morpholines and polar aprotic co-solvents” (Akzo Nobel Chemicals International B.V., priority 2010, dated 2014).

Tests used:
[1] = Dilution of Imidacloprid formulation in water, ocular inspection; type: physicochemical; design: key: +: easily dissolved; −: permanent crystals; NS: Non soluble; conditions: 200 g/l diluted to 0.4 g/l
From the text: Formulations containing 200 g/l of Imidacloprid was formulated together with 40 g/l of an alcohol ethoxylate (2-propylheptanol ethoxylated with 8 moles of EO per mole of alcohol) and diluted to a final volume of one liter with each one of the solvents N-formyl morpholine, N-acetyl morpholine and N-propionyl morpholine along with a co-solvent. The co-solvents used were dimethylsulfoxide (DMSO), propylene carbonate (PC), dimethylformamide (DMF) and ethyl lactate (EL). Ethyl lactate is a protic solvent and is included in the experiment for comparison. The amount of each co-solvent, in % by weight of the total weight of morpholine and co-solvent, is seen in table 2. The solutions was diluted in water to an end concentration of imidacloprid of 0.4 g/l and the dilution was judged by ocular inspection with the naked eye, and in the table below, the following is used: • +: easily dissolved, • −: permanent crystals. • NS: Non soluble

[2] = Literature value from Adjuvant Newsletter; cited from earlier work
[3] = Solubility in acyl morpholines; type: physicochemical; conditions: 23° C.
Protocol: Various agriculturally active ingredients were dissolved in N-formyl morpholine, N-acetyl morpholine and N-propionyl morpholine in order to evaluate the solubility of the active ingredients in the solvents. This was done by adding the active ingredient to a beaker and thereafter adding the solvent until a clear solution was obtained. The solutions were continually stirred at a temperature of 23° C. during the experiments. When everything had been dissolved, the beakers were left without stirring for 24 h to see if the solution was stable (i.e. no crystallization).

## O=[N+]([O-])NC1=NCCN1Cc1ccc(Cl)nc1 [Imidacloprid]
[1]; NAM, 0% DMF
  Crystallization upon dilution in water: −
[1]; NAM, 0% DMSO
  Crystallization upon dilution in water: −
[1]; NAM, 0% EL
  Crystallization upon dilution in water: −
[1]; NAM, 0% PC
  Crystallization upon dilution in water: −
[1]; NAM, 5% DMF
  Crystallization upon dilution in water: −
[1]; NAM, 5% DMSO
  Crystallization upon dilution in water: −
[1]; NAM, 5% EL
  Crystallization upon dilution in water: −
[1]; NAM, 5% PC
  Crystallization upon dilution in water: −
[1]; NAM, 10% DMF
  Crystallization upon dilution in water: −
[1]; NAM, 10% DMSO
  Crystallization upon dilution in water: −
[1]; NAM, 10% EL
  Crystallization upon dilution in water: NS
[1]; NAM, 10% PC
  Crystallization upon dilution in water: −
[1]; NAM, 15% DMF
  Crystallization upon dilution in water: −
[1]; NAM, 15% DMSO
  Crystallization upon dilution in water: +
[1]; NAM, 15% EL
  Crystallization upon dilution in water: NS
[1]; NAM, 15% PC
  Crystallization upon dilution in water: −
[1]; NAM, 20% DMF
  Crystallization upon dilution in water: +
[1]; NAM, 20% DMSO
  Crystallization upon dilution in water: +
[1]; NAM, 20% EL
  Crystallization upon dilution in water: NS
[1]; NAM, 20% PC
  Crystallization upon dilution in water: NS
[1]; NAM, 25% DMF
  Crystallization upon dilution in water: +
[1]; NAM, 25% DMSO
  Crystallization upon dilution in water: +
[1]; NAM, 25% EL
  Crystallization upon dilution in water: NS
[1]; NAM, 25% PC
  Crystallization upon dilution in water: NS
[1]; NAM, 30% DMF
  Crystallization upon dilution in water: +
[1]; NAM, 30% DMSO
  Crystallization upon dilution in water: +
[1]; NAM, 30% EL
  Crystallization upon dilution in water: NS
[1]; NAM, 30% PC
  Crystallization upon dilution in water: NS
[1]; NAM, 50% DMF
  Crystallization upon dilution in water: +
[1]; NAM, 50% DMSO
  Crystallization upon dilution in water: +
[1]; NAM, 50% EL
  Crystallization upon dilution in water: NS
[1]; NAM, 50% PC
  Crystallization upon dilution in water: NS
[1]; NAM, 95% DMF
  Crystallization upon dilution in water: +
[1]; NAM, 95% DMSO
  Crystallization upon dilution in water: +
[1]; NAM, 95% EL
  Crystallization upon dilution in water: NS
[1]; NAM, 95% PC
  Crystallization upon dilution in water: NS
[1]; NFM, 0% DMF
  Crystallization upon dilution in water: −
[1]; NFM, 0% DMSO
  Crystallization upon dilution in water: −
[1]; NFM, 0% EL
  Crystallization upon dilution in water: −
[1]; NFM, 0% PC
  Crystallization upon dilution in water: −
[1]; NFM, 5% DMF
  Crystallization upon dilution in water: −
[1]; NFM, 5% DMSO
  Crystallization upon dilution in water: −
[1]; NFM, 5% EL
  Crystallization upon dilution in water: −
[1]; NFM, 5% PC
  Crystallization upon dilution in water: −
[1]; NFM, 10% DMF
  Crystallization upon dilution in water: −
[1]; NFM, 10% DMSO
  Crystallization upon dilution in water: +
[1]; NFM, 10% EL
  Crystallization upon dilution in water: NS
[1]; NFM, 10% PC
  Crystallization upon dilution in water: −
[1]; NFM, 15% DMF
  Crystallization upon dilution in water: +
[1]; NFM, 15% DMSO
  Crystallization upon dilution in water: +
[1]; NFM, 15% EL
  Crystallization upon dilution in water: NS
[1]; NFM, 15% PC
  Crystallization upon dilution in water: +
[1]; NFM, 20% DMF
  Crystallization upon dilution in water: +
[1]; NFM, 20% DMSO
  Crystallization upon dilution in water: +
[1]; NFM, 20% EL
  Crystallization upon dilution in water: NS
[1]; NFM, 20% PC
  Crystallization upon dilution in water: +
[1]; NFM, 25% DMF
  Crystallization upon dilution in water: +
[1]; NFM, 25% DMSO
  Crystallization upon dilution in water: +
[1]; NFM, 25% EL
  Crystallization upon dilution in water: NS
[1]; NFM, 25% PC
  Crystallization upon dilution in water: +
[1]; NFM, 30% DMF
  Crystallization upon dilution in water: +
[1]; NFM, 30% DMSO
  Crystallization upon dilution in water: +
[1]; NFM, 30% EL
  Crystallization upon dilution in water: NS
[1]; NFM, 30% PC
  Crystallization upon dilution in water: NS
[1]; NFM, 50% DMF
  Crystallization upon dilution in water: +
[1]; NFM, 50% DMSO
  Crystallization upon dilution in water: +
[1]; NFM, 50% EL
  Crystallization upon dilution in water: NS
[1]; NFM, 50% PC
  Crystallization upon dilution in water: NS
[1]; NFM, 95% DMF
  Crystallization upon dilution in water: +
[1]; NFM, 95% DMSO
  Crystallization upon dilution in water: +
[1]; NFM, 95% EL
  Crystallization upon dilution in water: NS
[1]; NFM, 95% PC
  Crystallization upon dilution in water: NS
[1]; NPM, 0% DMF
  Crystallization upon dilution in water: −
[1]; NPM, 0% DMSO
  Crystallization upon dilution in water: −
[1]; NPM, 0% PC
  Crystallization upon dilution in water: −
[1]; NPM, 5% DMF
  Crystallization upon dilution in water: NS
[1]; NPM, 5% DMSO
  Crystallization upon dilution in water: NS
[1]; NPM, 5% PC
  Crystallization upon dilution in water: NS
[1]; NPM, 10% DMF
  Crystallization upon dilution in water: NS
[1]; NPM, 10% DMSO
  Crystallization upon dilution in water: NS
[1]; NPM, 10% PC
  Crystallization upon dilution in water: NS
[1]; NPM, 15% DMF
  Crystallization upon dilution in water: NS
[1]; NPM, 15% DMSO
  Crystallization upon dilution in water: NS
[1]; NPM, 15% PC
  Crystallization upon dilution in water: NS
[1]; NPM, 20% DMF
  Crystallization upon dilution in water: NS
[1]; NPM, 20% DMSO
  Crystallization upon dilution in water: NS
[1]; NPM, 20% PC
  Crystallization upon dilution in water: NS
[1]; NPM, 25% DMF
  Crystallization upon dilution in water: NS
[1]; NPM, 25% DMSO
  Crystallization upon dilution in water: −
[1]; NPM, 25% PC
  Crystallization upon dilution in water: NS
[1]; NPM, 30% DMF
  Crystallization upon dilution in water: −
[1]; NPM, 30% DMSO
  Crystallization upon dilution in water: −
[1]; NPM, 30% PC
  Crystallization upon dilution in water: NS
[1]; NPM, 50% DMF
  Crystallization upon dilution in water: +
[1]; NPM, 50% DMSO
  Crystallization upon dilution in water: +
[1]; NPM, 50% PC
  Crystallization upon dilution in water: NS
[1]; NPM, 95% DMF
  Crystallization upon dilution in water: +
[1]; NPM, 95% DMSO
  Crystallization upon dilution in water: +
[1]; NPM, 95% EL
  Crystallization upon dilution in water: NS
[1]; NPM, 95% PC
  Crystallization upon dilution in water: NS
[2]
  Dissolution of active ingredient into Lactic acid dimethyl amide: 14 grams of active ingredient in 100 g solvent
[3]; NAM
  Dissolution of active ingredient into N-acetyl morpholine (NAM): 26 grams of active ingredient in 100 g solvent
[3]; NFM
  Dissolution of active ingredient into N-formyl morpholine (NFM): 30 grams of active ingredient in 100 g solvent
[3]; NPM
  Dissolution of active ingredient into N-propionyl morpholine (NPM): 19 grams of active ingredient in 100 g solvent
